Data reported in patent US9439916B2, “Composition for decelerating the aging in the organism and for extending the life time thereof and the use of said composition” (MITOTECH SA, priority 2007, dated 2016).

Key:
Assay type in all cases: in vivo
SHR mice = assay: Life span of outbred SHR mice receiving SkQ1 with drinking water; conditions: for animals remained alive in 707 days of the experiment: SHR mice, SkQ1 with drinking water lifelong, control 8%
Protocol: (§1) An experiment with outbred SHR mice was carried out. The mice were divided into four groups (25 animals per each group). The three groups received a certain amount of SkQ1 with drinking water throughout their lives, and the fourth (control) group received water without SkQ1. Dose of SkQ1 is given in nanomoles per kg of animal weight per day.
(V. N. Anisimov, I. N. Alimova, D. A. Baturin, I. G. Popovich, M. A. Zabezhinski, S. V. Rosenfeld, K. G. Manton, A. V. Semenchenko, A. I. Yashin (2003) Dose-dependent effect of melatonin on life span and spontaneous tumor incidence in female SHR mice. Exp Gerontol. 38, 449-461).

female SHR mice = assay: Age-related changes in estrous function of female SHR mice
Protocol: as §1
With increasing the duration of the observation period, tendency of decelerating age-related disorders in estrous function in experimental animals becomes more pronounced, which were expressed as increase in the duration of cycle and lowering the frequency of regular cycles. For example, in the 2nd cohort in 15-month-old experimental animals received SkQ1 at a dose of 0.01 nanomoles per day, the frequency of regular cycles was 94%, whereas in the control—67%.

Drosophila melanogaster = assay: Life span of fruit flies, line w1118, fed SkQ1
Protocol: Isogenous laboratory Drosophila line w^1118 in which all individuals have the same genotype was chosen for the experiments, thus eliminating the influence of genetic differences between individuals on the results of experiments. The mitochondria-targeted antioxidant SkQ1 at a concentration of 1.85 nM was tested. Stock SkQ solution was diluted in distilled water. Adult flies were administered the compound throughout their lives. Since adult flies can feed on food located on the surface, it was decided to spread the SkQ1 solution of a corresponding concentration on the surface of freshly prepared medium poured into test tubes containing the flies. Virgin females and males of line w^1118 selected during the day were placed in tubes, each tube contained five individuals (males and females separately), in standard medium. In control tubes, 100 μl of distilled water without SkQ was spread on standard medium surface; in test tubes, 100 μl of the test compound at a selected concentration was spread on standard medium surface. The number of live flies in each tube was recorded daily, once a week flies were transferred to a corresponding fresh medium. All tubes were incubated at 25° C. In each experiment, 100 individuals (20 tubes) were analyzed.

p53 (-/-) mice = assay: Life span of p53 gene knockout mice; conditions: 0.1 nmoles per mouse per day (5 nM/kg/day) with drinking water
Text: Mice lacking the p53 gene (p53−/−) can not synthesize the p53 protein, so-called “guardian of the genome”, and can serve as a model of accelerated ageing and death of the organism caused by cancer [for more details, see A. A. Sablina, A. V. Budanov, G. V. Ilyinskaya, L. S. Agapova, J. E. Kravchenko, P. M. Chumakov (2005) The antioxidant function of the p53 tumor suppressor //Nature Med., 11, 1306-1313)].
Based on the previously conducted PCR analysis detecting p53−/−, p53+/− and p53+/+ mice in the progeny of heterozygous (p53+/−) animals, the two groups of mice were drawn up which received: • clean drinking water; • water supplemented with SkQ1 (0.1 nmoles of the preparation per mouse per day (5 nM/kg/day)).

[1] = tested on: cat with senile generalized progressive retinal dystrophy; assay: Veterinary clinical trial, senile blindness in a cat; conditions: 15 years, daily instillation of 250 nM SkQ1 solution, pH 6.5
Protocol: A) Patient—cat, breed—European Shorthair, age—15 years. Diagnosis—retinitis, papillitis, senile generalized progressive retinal dystrophy. Clinical signs—depigmentation of t. lucidum, the optic disk (OD) is violet. Retinal detachment. Vision is absent.
Treatment—daily instillation of 250 nM SkQ1 solution (in physiological solution at pH 6.5).

[2] = tested on: horse with senile blindness; assay: Veterinary clinical trial, senile blindness in a horse
Text: B) Patient—horse, gelding, not thoroughbred, age—20 years. Diagnosis—senile blindness associated with degeneration of the retina and its vessels. Clinical signs—shortening and thinning of retinal vessels emanating from the optic disk, depigmentation of t. lucidum t. nigrum, thinning of the retina over the entire surface of eye fundus. As a result, Choroid blood vessels in the form of straight lines are well visualized, posterior polar senile cataract is detected. The animal cannot see during the last eight months.
Treatment—daily instillation of 250 nM SkQ1 solution (in physiological solution at pH 6.5), and since the 3rd month of treatment—2 times a day.

OXYS rats [3] = assay: Bone tissue state by X-ray densitometry (osteoporosis); conditions: two 45-day courses of 50 nanomoles per kg per day, studied at 6 months
Protocol: Experiments were conducted on the two lines of rats—Wistar and OXYS. Genetically determined metabolic defect, manifesting itself as decreased resistance of OXYS rats towards oxidative stress, leads to changes in their organism which may be regarded as accelerated ageing syndrome. In particular, reduced bone mineral density in OXYS rats, as compared to Wistar rats, is observed. Such changes are also observed in osteoporosis in humans that allows us to consider these animals as an adequate model of senile osteoporosis in humans.
Wistar and OXYS rats,—control rats and those who received two courses of SkQ1 (50 nanomoles per kg of body weight per day), were studied. The animals received the preparation since 1.5 and 4 months of age for 45 days. At the age of 6 months, bone tissue state was studied by X-ray densitometry.

OXYS male rats = assay: Sexual motivation model: male near receptive female behind a barrier; conditions: one year old OXYS males
Text: […] To do this, an experimental model of sexual arousal was used—males were kept under conditions allowing them to see the receptive female, perceive the female's smell, but excluding physical contact with the female. Under these conditions, male rats and male mice show increase in blood testosterone level and typical motivational behavior.

OXYS rats [4] = assay: Morris water maze test of learning ability; conditions: 16-month-old OXYS rats, 250 nanomoles per kg of body weight since 1.5 months
Text: The Morris water maze test is actively used for studies on learning and long-term spatial memory in animals. The method of Morris allows to evaluate strategies for behavior, dynamics of skill formation, to detect even weak differences in behavior. This test evaluates the ability of an animal, swimming in the opaque water of the pool and looking at the signs on its sides, to learn how to find the invisible, hidden platform under water, no matter from what point of the perimeter of the pool the animal was released.
In subsequent experiments, 4 groups of 16-month-old animals: control Wistar and OXYS rats, and groups received the preparation since 1.5 months at a dose of 250 nanomoles per kg of body weight, were used. A latent period of time spent by rats to find the platform depended only on the genotype—it took longer in OXYS rats than in Wistar rats—OXYS rats coped worse with the task.

rats = assay: Behavioral tests "open field" and "elevated cruciform maze"

## CC1=C(C)C(=O)C(CCCCCCCCCC[P+](c2ccccc2)(c2ccccc2)c2ccccc2)=CC1=O [SkQ1]
SHR mice; first of three test groups (dose not given)
  animals remained alive in 707 days of the experiment: 36%
SHR mice; second of three test groups (dose not given)
  animals remained alive in 707 days of the experiment: 28%
SHR mice; third of three test groups (dose not given)
  animals remained alive in 707 days of the experiment: 24%
SHR mice; optimal doses (1 nanomole per animal per day), versus control
  life span of SHR mice: much longer life span
Female SHR mice; 2nd cohort, 15-month-old female SHR mice, 0.01 nanomoles per day, control 67%
  frequency of regular estrous cycles: 94%
Female SHR mice; female SHR mice received SkQ1, compared to the control group
  age-related changes in estrous function: less pronounced age-related changes in estrous function
Drosophila melanogaster; 1.85 nM SkQ1, control 0.18, P=0.0056
  fraction of individuals aged 70 days and older: 0.48
Drosophila melanogaster; 1.85 nM SkQ1 on medium surface, 25° C., control 58 days, P=0.0012
  average life expectancy: 66 days
p53 (-/-) mice
  life span of p53 (-/-) mice: dramatic increase of the life span
[1]
  vision after 10 days of the treatment: the pupil began to respond to light, the cat began to play with the ball and see even small objects
  vision after 21 days of the treatment: vision retained
[2]; 20 years, instillation of 250 nM SkQ1 solution daily, 2 times a day since 3rd month
  vision after 90 days of the treatment: The vision was restored
[2]; after 90 days of the treatment with 250 nM SkQ1 instillation
  growth of new blood vessels from the optic disk: 40
OXYS rats [3]
  bone mineral density of femur and tibia: reliably increased
  total mass of bone tissue: reliably increased
OXYS male rats; 50 nanomoles of SkQ1, versus control males
  time spent by a male rat near a female rat separated by a barrier: reliably increased
OXYS male rats; 250 nanomoles of SkQ1, versus control males
  time spent by a male rat near a female rat separated by a barrier: reliably increased
OXYS rats [4]
  ability to learn (latent period to find the platform in the Morris maze): improved the ability of OXYS rats to learn
rats; Wistar rats
  stress-protective effect: clear stress-protective effect
rats; open field and elevated cruciform maze
  search and exploratory activity of rats: positive effect
